Earlier results in patent US20030004177A1, “Abuse-resistant opioid dosage form” (Endo Pharmaceuticals, Inc., priority 2001, published 2003).
Read-outs that look alike come from different tables or passages of the source.

Assays:
[1] = system: opioid effect; settings: injection or intranasal administration

For `C=CCN1CC[C@]23c4c5ccc(O)c4O[C@H]2C(=O)CC[C@@]3(O)[C@H]1C5` [naloxone], the bioavailability (administered orally) is listed as “very low”, the bioavailability (administered parenterally) is listed as “high” and the “amount needed to antagonize the opioid effect, to induce abstinence in dependent individuals, and to prevent abuse” value [1] is listed as 0.2 to 0.4 mg.
